# In patent US20240415914A1, “Water Dispersible Cannabinoid Compositions” (priority 2021, published 2024):
# Where two headings read alike, the source gives them in different places.
# What was measured:
# [1] = Stability of cannabinoid and Vitamin E components of Beverage 2 (AB Red) stored at 8° C. and 21-25° C., LCMSMS over 570 days; conditions: AB Red
# Method: The LCMSMS was calibrated for 0-50 ng/ml cannabinoids with the same resin material used in the preparation of the concentrates. At each time period, 100 μml of beverage was diluted with 10 ml of methanol and injected into the LCMSMS for analysis.
# [2] = Stability of cannabinoid and Vitamin E components of Beverage 1 (AB White) stored at 8° C. and 21-25° C., LCMSMS over 570 days; format: physicochemical; conditions: for Storage time after which slight degradation / significant losses are seen: AB White; for Stability in AB White, 8° C. (content by LCMSMS): beverage stored at 8° C.
# Method: The LCMSMS was calibrated for 0-1000 ng/ml cannabinoids with the same resin material used in the preparation of the concentrates. At each time period, 100 ml of beverage was diluted with 10 ml of methanol and injected into the LCMSMS for analysis.
# [3] = format: physicochemical; conditions: for Stability in Powder Concentrate (content by LCMSMS): stored at room temperature (21-25° C.)
# Method: At each time period, 0.05 g of powder was dissolved in 10 ml-15 of ethanol, diluted to fall within the analytical range, and injected into the LCMSMS for analysis.
compound,measurement,setting,value
"C=C(C)[C@@H]1CCC(C)=C[C@H]1c1c(O)cc(CCCCC)cc1O [CBD, cannabidiol, reference compound]",Storage time after which slight degradation / significant losses are seen,[1]; stored at 8° C.,> 420 days
same,Storage time after which slight degradation / significant losses are seen,[1]; stored at 21-25° C.,> 390 days
same,Storage time after which slight degradation / significant losses are seen,[2]; stored at 8° C.,> 480 days
same,Storage time after which slight degradation / significant losses are seen,[2]; stored at 21-25° C.,> 390 days
same,"Stability in AB White, 8° C. (content by LCMSMS)",[2]; day 0,28.5 µg/mL
same,"Stability in AB White, 8° C. (content by LCMSMS)",[2]; day 1,27.65 µg/mL
same,"Stability in AB White, 8° C. (content by LCMSMS)",[2]; day 2,27.67 µg/mL
same,"Stability in AB White, 8° C. (content by LCMSMS)",[2]; day 3,27.96 µg/mL
same,"Stability in AB White, 8° C. (content by LCMSMS)",[2]; day 5,28.61 µg/mL
same,"Stability in AB White, 8° C. (content by LCMSMS)",[2]; day 8,28.47 µg/mL
same,"Stability in AB White, 8° C. (content by LCMSMS)",[2]; day 9,28.44 µg/mL
same,"Stability in AB White, 8° C. (content by LCMSMS)",[2]; day 10,27.87 µg/mL
same,"Stability in AB White, 8° C. (content by LCMSMS)",[2]; day 11,28.13 µg/mL
same,"Stability in AB White, 8° C. (content by LCMSMS)",[2]; day 12,28.10 µg/mL
same,"Stability in AB White, 8° C. (content by LCMSMS)",[2]; day 15,27.99 µg/mL
same,"Stability in AB White, 8° C. (content by LCMSMS)",[2]; day 16,28.04 µg/mL
same,"Stability in AB White, 8° C. (content by LCMSMS)",[2]; day 17,27.84 µg/mL
same,"Stability in AB White, 8° C. (content by LCMSMS)",[2]; day 18,27.87 µg/mL
same,"Stability in AB White, 8° C. (content by LCMSMS)",[2]; day 19,28.36 µg/mL
same,"Stability in AB White, 8° C. (content by LCMSMS)",[2]; day 22,28.50 µg/mL
same,"Stability in AB White, 8° C. (content by LCMSMS)",[2]; day 23,27.67 µg/mL
same,"Stability in AB White, 8° C. (content by LCMSMS)",[2]; day 24,28.44 µg/mL
same,"Stability in AB White, 8° C. (content by LCMSMS)",[2]; day 25,27.65 µg/mL
same,"Stability in AB White, 8° C. (content by LCMSMS)",[2]; day 26,27.73 µg/mL
same,"Stability in AB White, 8° C. (content by LCMSMS)",[2]; day 29,28.24 µg/mL
same,"Stability in AB White, 8° C. (content by LCMSMS)",[2]; day 30,27.93 µg/mL
same,"Stability in AB White, 8° C. (content by LCMSMS)",[2]; day 60,27.73 µg/mL
same,"Stability in AB White, 8° C. (content by LCMSMS)",[2]; day 90,27.87 µg/mL
same,"Stability in AB White, 8° C. (content by LCMSMS)",[2]; day 120,27.39 µg/mL
same,"Stability in AB White, 8° C. (content by LCMSMS)",[2]; day 150,28.59 µg/mL
same,"Stability in AB White, 8° C. (content by LCMSMS)",[2]; day 180,27.59 µg/mL
same,"Stability in AB White, 8° C. (content by LCMSMS)",[2]; day 210,27.76 µg/mL
same,"Stability in AB White, 8° C. (content by LCMSMS)",[2]; day 240,27.79 µg/mL
same,"Stability in AB White, 8° C. (content by LCMSMS)",[2]; day 270,28.07 µg/mL
same,"Stability in AB White, 8° C. (content by LCMSMS)",[2]; day 300,27.96 µg/mL
same,"Stability in AB White, 8° C. (content by LCMSMS)",[2]; day 330,27.33 µg/mL
same,"Stability in AB White, 8° C. (content by LCMSMS)",[2]; day 360,27.79 µg/mL
same,"Stability in AB White, 8° C. (content by LCMSMS)",[2]; day 390,27.50 µg/mL
same,"Stability in AB White, 8° C. (content by LCMSMS)",[2]; day 420,27.50 µg/mL
same,"Stability in AB White, 8° C. (content by LCMSMS)",[2]; day 480,27.13 µg/mL
same,"Stability in AB White, 8° C. (content by LCMSMS)",[2]; day 510,26.48 µg/mL
same,"Stability in AB White, 8° C. (content by LCMSMS)",[2]; day 540,26.51 µg/mL
same,"Stability in AB White, 8° C. (content by LCMSMS)",[2]; day 570,26.22 µg/mL
same,Chemical stability over the entire period (result in words),"[3]; powder concentrate, room temperature (21-25° C.), 570 days",no significant degradation
same,Stability in Powder Concentrate (content by LCMSMS),[3]; day 0,5.85 mg/g powder
same,Stability in Powder Concentrate (content by LCMSMS),[3]; day 1,5.69 mg/g powder
same,Stability in Powder Concentrate (content by LCMSMS),[3]; day 2,5.76 mg/g powder
same,Stability in Powder Concentrate (content by LCMSMS),[3]; day 3,5.81 mg/g powder
same,Stability in Powder Concentrate (content by LCMSMS),[3]; day 5,5.84 mg/g powder
same,Stability in Powder Concentrate (content by LCMSMS),[3]; day 8,5.91 mg/g powder
same,Stability in Powder Concentrate (content by LCMSMS),[3]; day 9,6.01 mg/g powder
same,Stability in Powder Concentrate (content by LCMSMS),[3]; day 10,5.69 mg/g powder
same,Stability in Powder Concentrate (content by LCMSMS),[3]; day 11,6.00 mg/g powder
same,Stability in Powder Concentrate (content by LCMSMS),[3]; day 12,5.76 mg/g powder
same,Stability in Powder Concentrate (content by LCMSMS),[3]; day 15,5.85 mg/g powder
same,Stability in Powder Concentrate (content by LCMSMS),[3]; day 16,5.97 mg/g powder
same,Stability in Powder Concentrate (content by LCMSMS),[3]; day 17,5.97 mg/g powder
same,Stability in Powder Concentrate (content by LCMSMS),[3]; day 18,6.01 mg/g powder
same,Stability in Powder Concentrate (content by LCMSMS),[3]; day 19,5.74 mg/g powder
same,Stability in Powder Concentrate (content by LCMSMS),[3]; day 22,5.84 mg/g powder
same,Stability in Powder Concentrate (content by LCMSMS),[3]; day 23,6.10 mg/g powder
same,Stability in Powder Concentrate (content by LCMSMS),[3]; day 24,5.89 mg/g powder
same,Stability in Powder Concentrate (content by LCMSMS),[3]; day 25,6.01 mg/g powder
same,Stability in Powder Concentrate (content by LCMSMS),[3]; day 26,6.00 mg/g powder
same,Stability in Powder Concentrate (content by LCMSMS),[3]; day 29,5.97 mg/g powder
same,Stability in Powder Concentrate (content by LCMSMS),[3]; day 30,5.94 mg/g powder
same,Stability in Powder Concentrate (content by LCMSMS),[3]; day 60,5.66 mg/g powder
same,Stability in Powder Concentrate (content by LCMSMS),[3]; day 90,6.00 mg/g powder
same,Stability in Powder Concentrate (content by LCMSMS),[3]; day 120,5.80 mg/g powder
same,Stability in Powder Concentrate (content by LCMSMS),[3]; day 150,5.65 mg/g powder
same,Stability in Powder Concentrate (content by LCMSMS),[3]; day 180,5.93 mg/g powder
same,Stability in Powder Concentrate (content by LCMSMS),[3]; day 210,5.83 mg/g powder
same,Stability in Powder Concentrate (content by LCMSMS),[3]; day 240,5.98 mg/g powder
same,Stability in Powder Concentrate (content by LCMSMS),[3]; day 270,5.72 mg/g powder
same,Stability in Powder Concentrate (content by LCMSMS),[3]; day 300,5.84 mg/g powder
same,Stability in Powder Concentrate (content by LCMSMS),[3]; day 330,6.01 mg/g powder
same,Stability in Powder Concentrate (content by LCMSMS),[3]; day 360,5.97 mg/g powder
same,Stability in Powder Concentrate (content by LCMSMS),[3]; day 390,5.93 mg/g powder
same,Stability in Powder Concentrate (content by LCMSMS),[3]; day 420,5.94 mg/g powder
same,Stability in Powder Concentrate (content by LCMSMS),[3]; day 450,5.65 mg/g powder
same,Stability in Powder Concentrate (content by LCMSMS),[3]; day 480,5.66 mg/g powder
same,Stability in Powder Concentrate (content by LCMSMS),[3]; day 510,6.01 mg/g powder
same,Stability in Powder Concentrate (content by LCMSMS),[3]; day 540,5.81 mg/g powder
same,Stability in Powder Concentrate (content by LCMSMS),[3]; day 570,5.85 mg/g powder
